We go through one molecule from paper PMC12624434 (ACS Pharmacology & Translational Science, 2025).

Series [1] in a line: Pharmacokinetics in mice, 2 mg/kg iv. Type of series: in vivo. The note with it: female, BALB/c, mouse, plasma. The method, then: To test compound drug-like properties, selected compounds with low IC50 were further evaluated for their pharmacokinetic (PK) profile. 6–8 week-old BABL/c female mice were used. Two mg/kg of compounds was formulated in 7.5% DMSO and 92.5% PBS solution and intravenously dosed into the tail vein as a bolus. Blood samples were collected by cardiac puncture at 5, 15, 30, 60, 180, and 240 min post dosing. Plasma samples were prepared by centrifugation at 7000 rpm for 5 min, and supernatants were collected, immediately snap-frozen on dry ice and stored at −20 °C. Samples were analyzed by liquid chromatography-tandem mass spectrometry using electrospray ionization and data was analyzed by WinNonlin software.

Series [2] addresses T1, NRP1 b1 domain (Homo sapiens, UniProt O14786).
T1 construct: with the purified recombinant NRP1 b1 domain immobilized on the chip; inferred from Ni-NTA capture), TEV-cleavable (cleaved yes); made in house; host or cells: E. coli Rosetta (DE3)
T1 sequence (O14786 275-424 limits assumed): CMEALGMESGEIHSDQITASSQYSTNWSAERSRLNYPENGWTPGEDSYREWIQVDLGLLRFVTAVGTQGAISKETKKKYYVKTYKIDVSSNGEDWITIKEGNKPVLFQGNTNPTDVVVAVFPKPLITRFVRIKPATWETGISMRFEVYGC
As to the kind of experiment: SPR binding to immobilized NRP1 b1 domain (Biacore 4000, CM5 chip). Conditions: Figure 2B; read-out: KD (kinetics). (In general: In SPR one partner is held on a chip, and binding of the other changes the refractive index at the surface.)

Series [3] deals with VEGFA-induced mechanical allodynia in rats. As to the kind of experiment: VEGFA-induced mechanical allodynia (von Frey), intraplantar injection. Type of series: in vivo, rat. Conditions: 30 μM coinjected with VEGFA165 10 nM, 50 μL intraplantar; male and female rats. The method, then: The procedure was performed as reported previously. Briefly, rats were gently restrained in a fabric cloth and given an intraplantar injection in the hind-paw containing VEGFA165 (10 nM) and compound (EG00229 or 12h, at 30 or 10 μM) alone or in combination in 50 μL of PBS vehicle (NaCl 137 mM, KCl 2.5 mM, Na2HPO4 10 mM, and KH2PO4 1.8 mM), using a 31G needle.

The target in series [4] is T1, NRP1 b1 domain. As to the kind of experiment: SPR binding to immobilized NRP1 b1 domain (Biacore 4000, CM5 chip).
The test system of series [5] is T180/Y182 phosphorylated p38 (P-p38) in retinal endothelium. As to the kind of experiment: VEGFA-induced p38 phosphorylation in ex vivo mouse retina (immunostaining). The series is classed as cell-based. On the procedure:
Retinae from C57Bl/6J mice were fixed in 4% formaldehyde in PBS for 1 h and washed three times with PBS. After 1 h in blocking buffer (3% Triton X-100, 1%1% Tween and 0.5% BSA in 2× PBS), retinae were immunostained by incubation with rabbit anti-P-p38 MAPK (Thr180/Tyr182) antibody (Cell Signaling) and biotin-conjugated Isolectin B4 (IB4, Merck) overnight at 4 °C, followed by Alexa Fluor 555–conjugated goat antirabbit antibodies (Invitrogen) and Alexa Fluor 488-conjugated streptavidin (Invitrogen) respectively for 1 h at rt. Images were acquired with a Zeiss Axioskop 2 microscope, using a ph3 Plan-Apochromat 63×/1.40 oil objective, Hamamatsu camera and the HCImage software. Each image was acquired as an RGB color image and then processed with ImageJ software version 1.52a (NIH Bethesda). Channels were split to separate the IB4 staining (green channel) from the P-p38 staining (red channel). The threshold function was used on the IB4 image to determine the area of the vessels and to generate a mask that was restored in the red channel image to measure the area of the vessels positive to P-p38 staining. The P-p38 staining area was normalized against the area stained with IB4. Three retinae from three different mice per condition were used for analysis. One-way ANOVA was used to compare the different treatments.

For orientation: AUC(0-inf) means the area under the concentration-time curve extrapolated to infinity. Read a high AUC(0-inf) as more exposure. As usually defined, the AUC(0-t) is the area under the concentration-time curve up to a stated or last time point. Higher therefore signals high exposure. In general, Cmax refers to the peak of the concentration-time curve. The Tmax is the time at which the peak concentration occurs. The term Vd denotes the apparent volume that relates the amount in the body to the concentration in plasma or blood. Read a high Vd as extensive tissue distribution. By half-life is commonly meant the time needed for the level to fall by half in the phase considered. Low readings indicate fast loss, high ones slow loss. The term clearance denotes a measure of how efficiently the substance is removed, as volume per time. Read a high clearance as a high capacity for elimination. As a reminder, the AUC is the area under the concentration-time curve, a measure of exposure. The term Kd denotes a measure of binding affinity in units of concentration.

Molecules are shown by their SMILES. Read-outs that look alike come from different tables or passages of the source.

For the molecule `N=C(N)NCCC[C@H](NC(=O)c1sccc1NS(=O)(=O)c1cc(NCc2csc(N3CCNCC3)n2)cc2cccnc12)C(=O)O.O=CO` [Compound 12h, (2S)-5-Guanidino-2-[[3-[[6-[(2-piperazin-1-ylthiazol-4-yl)-methylamino]-8-quinolyl]-sulfonylamino]-thiophene-2-carbonyl]-amino]-pentanoic Acid, Formic Acid], in series [1], the AUC(0-inf) came out at 1370 ng·h/mL, the AUC(0-t) came out at 1370 ng·h/mL, the Cmax worked out at 5180 ng/mL and the Tmax was 4.8 min. In series [1], this molecule showed a Vd of 0.394 L/kg and a half-life of 78 min. The molecule further gave a clearance in series [1] (iv, 2 mg/kg) of 24.5 mL/min/kg. Also, the AUC in series [1] (read-out: AUC) stood at 1370 ng·h/mL. Moreover, the Kd on NRP1 b1 domain [2] is 346 nM. In series [3], the “effect on VEGFA-induced mechanical allodynia (paw withdrawal threshold, AUC 0-6 h)” value was “comparable antinociceptive effects in males and females”. Besides, the kon at NRP1 b1 domain [4] (Figure 2B, SPR-derived binding parameters, read-out: ka) worked out at 1.16e+06 M⁻¹ s⁻¹. Besides, on NRP1 b1 domain [4] (steady-state binding, 25 °C, mean ± SD, read-out: SPR NRP1 b1 domain equilibrium KD), the Kd came out at 600 ± 100 nM. Also, the “p38 phosphorylation when added alone” value in series [5] (30 μM alone, 5 min) is “did not induce p38 phosphorylation”. Further, the “effect on VEGFA-induced p38 phosphorylation in retinal endothelium” value in series [5] (30 μM, 15 min prior to VEGFA165 stimulation) is listed as “prevented VEGFA-induced p38 phosphorylation”.
